{"source": "ChEMBL document CHEMBL1201861", "about": "“Genomics of Drug Sensitity in Cancer screening data, Wellcome Trust Sanger Institute”", "assay_type_in_all_cases": "functional, cell-based", "key": {"[1]": {"test_system": "HSC-2", "test": "cells", "settings": "Homo sapiens", "description": "SANGER: Inhibition of human HSC-2 cell growth in a cell viability assay."}, "[2]": {"test_system": "SW1088", "test": "cells", "settings": "Homo sapiens", "description": "SANGER: Inhibition of human SW1088 cell growth in a cell viability assay."}, "[3]": {"test_system": "ACHN", "test": "cells", "settings": "Homo sapiens", "description": "SANGER: Inhibition of human ACHN cell growth in a cell viability assay."}, "[4]": {"test_system": "BFTC-905", "test": "cells", "settings": "Homo sapiens", "description": "SANGER: Inhibition of human BFTC-905 cell growth in a cell viability assay."}, "[5]": {"test_system": "BEN", "test": "cells", "settings": "Homo sapiens", "description": "SANGER: Inhibition of human BEN cell growth in a cell viability assay."}, "[6]": {"test_system": "A2058", "test": "cells", "settings": "Homo sapiens", "description": "SANGER: Inhibition of human A2058 cell growth in a cell viability assay."}, "[7]": {"test_system": "IM-9", "test": "SANGER: Inhibition of human IM-9 cell growth in a cell viability assay."}, "[8]": {"test_system": "NCI-H719", "test": "cells", "settings": "Homo sapiens", "description": "SANGER: Inhibition of human NCI-H719 cell growth in a cell viability assay."}, "[9]": {"test_system": "COLO-680N", "test": "cells", "settings": "Homo sapiens", "description": "SANGER: Inhibition of human COLO-680N cell growth in a cell viability assay."}, "[10]": {"test_system": "HO-1-N-1", "test": "cells", "settings": "Homo sapiens", "description": "SANGER: Inhibition of human HO-1-N-1 cell growth in a cell viability assay."}, "[11]": {"test_system": "SiHa", "test": "cells", "settings": "Homo sapiens", "description": "SANGER: Inhibition of human SiHa cell growth in a cell viability assay."}, "[12]": {"test_system": "G-401", "test": "cells", "settings": "Homo sapiens", "description": "SANGER: Inhibition of human G-401 cell growth in a cell viability assay."}, "[13]": {"test_system": "SCC-4", "test": "cells", "settings": "Homo sapiens", "description": "SANGER: Inhibition of human SCC-4 cell growth in a cell viability assay."}, "[14]": {"test_system": "NCI-H1623", "test": "cells", "settings": "Homo sapiens", "description": "SANGER: Inhibition of human NCI-H1623 cell growth in a cell viability assay."}, "[15]": {"test_system": "SK-MEL-30", "test": "cells", "settings": "Homo sapiens", "description": "SANGER: Inhibition of human SK-MEL-30 cell growth in a cell viability assay."}, "[16]": {"test_system": "SW948", "test": "cells", "settings": "Homo sapiens", "description": "SANGER: Inhibition of human SW948 cell growth in a cell viability assay."}, "[17]": {"test_system": "SK-N-AS", "test": "cells", "settings": "Homo sapiens", "description": "SANGER: Inhibition of human SK-N-AS cell growth in a cell viability assay."}, "[18]": {"test_system": "NY", "test": "cells", "settings": "Homo sapiens", "description": "SANGER: Inhibition of human NY cell growth in a cell viability assay."}, "[19]": {"test_system": "HT-1376", "test": "cells", "settings": "Homo sapiens", "description": "SANGER: Inhibition of human HT-1376 cell growth in a cell viability assay."}, "[20]": {"test_system": "DoTc2-4510", "test": "cells", "settings": "Homo sapiens"}, "[21]": {"test_system": "HCC1569", "test": "cells", "settings": "Homo sapiens", "description": "SANGER: Inhibition of human HCC1569 cell growth in a cell viability assay."}, "[22]": {"test_system": "SF-295", "test": "cells", "settings": "Homo sapiens", "description": "SANGER: Inhibition of human SF295 cell growth in a cell viability assay."}, "[23]": {"test_system": "UACC-812", "test": "cells", "settings": "Homo sapiens", "description": "SANGER: Inhibition of human UACC-812 cell growth in a cell viability assay."}, "[24]": {"test_system": "SW1783", "test": "cells", "settings": "Homo sapiens", "description": "SANGER: Inhibition of human SW1783 cell growth in a cell viability assay."}, "[25]": {"test_system": "UACC-893", "test": "cells", "settings": "Homo sapiens", "description": "SANGER: Inhibition of human UACC-893 cell growth in a cell viability assay."}, "[26]": {"test_system": "769-P", "test": "cells", "settings": "Homo sapiens", "description": "SANGER: Inhibition of human 769-P cell growth in a cell viability assay."}, "[27]": {"test_system": "SR", "test": "cells", "settings": "Homo sapiens", "description": "SANGER: Inhibition of human SR cell growth in a cell viability assay."}, "[28]": {"test_system": "WSU-NHL", "test": "cells", "settings": "Homo sapiens", "description": "SANGER: Inhibition of human WSU-NHL cell growth in a cell viability assay."}, "[29]": {"test_system": "BT-20", "test": "cells", "settings": "Homo sapiens", "description": "SANGER: Inhibition of human BT-20 cell growth in a cell viability assay."}, "[30]": {"test_system": "NCI-H2170", "test": "cells", "settings": "Homo sapiens", "description": "SANGER: Inhibition of human NCI-H2170 cell growth in a cell viability assay."}, "[31]": {"test_system": "HCT-15", "test": "cells", "settings": "Homo sapiens", "description": "SANGER: Inhibition of human HCT-15 cell growth in a cell viability assay."}, "[32]": {"test_system": "NCI-H596", "test": "cells", "settings": "Homo sapiens", "description": "SANGER: Inhibition of human NCI-H596 cell growth in a cell viability assay."}, "[33]": {"test_system": "FaDu", "test": "cells", "settings": "Homo sapiens", "description": "SANGER: Inhibition of human FADU cell growth in a cell viability assay."}, "[34]": {"test_system": "HSC-3", "test": "cells", "settings": "Homo sapiens", "description": "SANGER: Inhibition of human HSC-3 cell growth in a cell viability assay."}, "[35]": {"test_system": "SCLC-21H", "test": "cells", "settings": "Homo sapiens", "description": "SANGER: Inhibition of human SCLC-21H cell growth in a cell viability assay."}, "[36]": {"test_system": "RPMI-6666", "test": "cells", "settings": "Homo sapiens", "description": "SANGER: Inhibition of human RPMI-6666 cell growth in a cell viability assay."}, "[37]": {"test_system": "Calu-3", "test": "cells", "settings": "Homo sapiens", "description": "SANGER: Inhibition of human Calu-3 cell growth in a cell viability assay."}, "[38]": {"test_system": "U-118-MG", "test": "cells", "settings": "Homo sapiens", "description": "SANGER: Inhibition of human U-118-MG cell growth in a cell viability assay."}, "[39]": {"test_system": "HCC2157", "test": "cells", "settings": "Homo sapiens", "description": "SANGER: Inhibition of human HCC2157 cell growth in a cell viability assay."}, "[40]": {"test_system": "8305C", "test": "cells", "settings": "Homo sapiens", "description": "SANGER: Inhibition of human 8305C cell growth in a cell viability assay."}, "[41]": {"test_system": "NCI-H1882", "test": "cells", "settings": "Homo sapiens", "description": "SANGER: Inhibition of human NCI-H1882 cell growth in a cell viability assay."}, "[42]": {"test_system": "NCI-H28", "test": "cells", "settings": "Homo sapiens", "description": "SANGER: Inhibition of human NCI-H28 cell growth in a cell viability assay."}, "[43]": {"test_system": "MDA-MB-361", "test": "cells", "settings": "Homo sapiens"}, "[44]": {"test_system": "CaR-1", "test": "cells", "settings": "Homo sapiens", "description": "SANGER: Inhibition of human CaR-1 cell growth in a cell viability assay."}, "[45]": {"test_system": "SN12C", "test": "cells", "settings": "Homo sapiens", "description": "SANGER: Inhibition of human SN12C cell growth in a cell viability assay."}, "[46]": {"test_system": "CAPAN-1", "test": "cells", "settings": "Homo sapiens", "description": "SANGER: Inhibition of human CAPAN-1 cell growth in a cell viability assay."}, "[47]": {"test_system": "NCI-H358", "test": "cells", "settings": "Homo sapiens", "description": "SANGER: Inhibition of human NCI-H358 cell growth in a cell viability assay."}, "[48]": {"test_system": "SW13", "test": "cells", "settings": "Homo sapiens", "description": "SANGER: Inhibition of human SW13 cell growth in a cell viability assay."}, "[49]": {"test_system": "VMRC-RCZ", "test": "cells", "settings": "Homo sapiens", "description": "SANGER: Inhibition of human VMRC-RCZ cell growth in a cell viability assay."}, "[50]": {"test_system": "SCC-9", "test": "cells", "settings": "Homo sapiens", "description": "SANGER: Inhibition of human SCC-9 cell growth in a cell viability assay."}, "[51]": {"test_system": "23132-87", "test": "cells", "settings": "Homo sapiens", "description": "SANGER: Inhibition of human 23132-87 cell growth in a cell viability assay."}, "[52]": {"test_system": "SW1990", "test": "cells", "settings": "Homo sapiens", "description": "SANGER: Inhibition of human SW1990 cell growth in a cell viability assay."}, "[53]": {"test_system": "639-V", "test": "cells", "settings": "Homo sapiens", "description": "SANGER: Inhibition of human 639-V cell growth in a cell viability assay."}, "[54]": {"test_system": "Capan-2", "test": "cells", "settings": "Homo sapiens", "description": "SANGER: Inhibition of human Capan-2 cell growth in a cell viability assay."}, "[55]": {"test_system": "LC4-1", "test": "cells", "settings": "Homo sapiens", "description": "SANGER: Inhibition of human LC4-1 cell growth in a cell viability assay."}, "[56]": {"test_system": "5637", "test": "cells", "settings": "Homo sapiens", "description": "SANGER: Inhibition of human 5637 cell growth in a cell viability assay."}, "[57]": {"test_system": "D-392MG", "test": "cells", "settings": "Homo sapiens"}, "[58]": {"test_system": "MFE-280", "test": "cells", "settings": "Homo sapiens", "description": "SANGER: Inhibition of human MFE-280 cell growth in a cell viability assay."}, "[59]": {"test_system": "UMC-11", "test": "cells", "settings": "Homo sapiens", "description": "SANGER: Inhibition of human UMC-11 cell growth in a cell viability assay."}, "[60]": {"test_system": "MDA-MB-415", "test": "cells", "settings": "Homo sapiens"}, "[61]": {"test_system": "NCI-H1793", "test": "cells", "settings": "Homo sapiens", "description": "SANGER: Inhibition of human NCI-H1793 cell growth in a cell viability assay."}, "[62]": {"test_system": "SK-OV-3", "test": "cells", "settings": "Homo sapiens", "description": "SANGER: Inhibition of human SK-OV-3 cell growth in a cell viability assay."}, "[63]": {"test_system": "NB12", "test": "cells", "settings": "Homo sapiens", "description": "SANGER: Inhibition of human NB12 cell growth in a cell viability assay."}}}
{"smiles": "CCNC(=O)c1noc(-c2cc(C(C)C)c(O)cc2O)c1-c1ccc(CN2CCOCC2)cc1", "note": "[LUMINESPIB]", "values": [{"measurement": "IC50", "setting": "[1]", "result": 5.18, "unit": "nM"}, {"measurement": "IC50", "setting": "[2]", "result": "> 256", "unit": "nM"}, {"measurement": "IC50", "setting": "[3]", "result": 23.5, "unit": "nM"}, {"measurement": "IC50", "setting": "[4]", "result": 9.38, "unit": "nM"}, {"measurement": "IC50", "setting": "[5]", "result": 116, "unit": "nM"}, {"measurement": "IC50", "setting": "[6]", "result": 29.3, "unit": "nM"}, {"measurement": "IC50", "setting": "[7]", "result": 235, "unit": "nM"}, {"measurement": "IC50", "setting": "[8]", "result": "> 256", "unit": "nM"}, {"measurement": "IC50", "setting": "[9]", "result": 44.1, "unit": "nM"}, {"measurement": "IC50", "setting": "[10]", "result": 25.5, "unit": "nM"}, {"measurement": "IC50", "setting": "[11]", "result": "> 256", "unit": "nM"}, {"measurement": "IC50", "setting": "[12]", "result": 10.3, "unit": "nM"}, {"measurement": "IC50", "setting": "[13]", "result": 28.1, "unit": "nM"}, {"measurement": "IC50", "setting": "[14]", "result": "> 256", "unit": "nM"}, {"measurement": "IC50", "setting": "[15]", "result": 43.6, "unit": "nM"}, {"measurement": "IC50", "setting": "[16]", "result": "> 256", "unit": "nM"}, {"measurement": "IC50", "setting": "[17]", "result": "> 256", "unit": "nM"}, {"measurement": "IC50", "setting": "[18]", "result": 17.4, "unit": "nM"}, {"measurement": "IC50", "setting": "[19]", "result": 98.6, "unit": "nM"}, {"measurement": "IC50", "setting": "[20]", "result": 21.2, "unit": "nM"}, {"measurement": "IC50", "setting": "[21]", "result": 36.1, "unit": "nM"}, {"measurement": "IC50", "setting": "[22]", "result": 17.2, "unit": "nM"}, {"measurement": "IC50", "setting": "[23]", "result": "> 256", "unit": "nM"}, {"measurement": "IC50", "setting": "[24]", "result": 5.91, "unit": "nM"}, {"measurement": "IC50", "setting": "[25]", "result": 59, "unit": "nM"}, {"measurement": "IC50", "setting": "[26]", "result": 10.7, "unit": "nM"}, {"measurement": "IC50", "setting": "[27]", "result": 27.9, "unit": "nM"}, {"measurement": "IC50", "setting": "[28]", "result": 73.3, "unit": "nM"}, {"measurement": "IC50", "setting": "[29]", "result": "> 256", "unit": "nM"}, {"measurement": "IC50", "setting": "[30]", "result": 163, "unit": "nM"}, {"measurement": "IC50", "setting": "[31]", "result": 66, "unit": "nM"}, {"measurement": "IC50", "setting": "[32]", "result": 174, "unit": "nM"}, {"measurement": "IC50", "setting": "[33]", "result": 67.4, "unit": "nM"}, {"measurement": "IC50", "setting": "[34]", "result": 6.41, "unit": "nM"}, {"measurement": "IC50", "setting": "[35]", "result": "> 256", "unit": "nM"}, {"measurement": "IC50", "setting": "[36]", "result": 8.52, "unit": "nM"}, {"measurement": "IC50", "setting": "[37]", "result": 37.9, "unit": "nM"}, {"measurement": "IC50", "setting": "[38]", "result": 25.8, "unit": "nM"}, {"measurement": "IC50", "setting": "[39]", "result": 57.3, "unit": "nM"}, {"measurement": "IC50", "setting": "[40]", "result": 30.7, "unit": "nM"}, {"measurement": "IC50", "setting": "[41]", "result": "> 256", "unit": "nM"}, {"measurement": "IC50", "setting": "[42]", "result": "> 256", "unit": "nM"}, {"measurement": "IC50", "setting": "[43]", "result": 58.7, "unit": "nM"}, {"measurement": "IC50", "setting": "[44]", "result": "> 256", "unit": "nM"}, {"measurement": "IC50", "setting": "[45]", "result": 247, "unit": "nM"}, {"measurement": "IC50", "setting": "[46]", "result": 71.4, "unit": "nM"}, {"measurement": "IC50", "setting": "[47]", "result": 42.1, "unit": "nM"}, {"measurement": "IC50", "setting": "[48]", "result": 45.9, "unit": "nM"}, {"measurement": "IC50", "setting": "[49]", "result": 16.5, "unit": "nM"}, {"measurement": "IC50", "setting": "[50]", "result": 58.7, "unit": "nM"}, {"measurement": "IC50", "setting": "[51]", "result": 105, "unit": "nM"}, {"measurement": "IC50", "setting": "[52]", "result": 27.2, "unit": "nM"}, {"measurement": "IC50", "setting": "[53]", "result": 4.85, "unit": "nM"}, {"measurement": "IC50", "setting": "[54]", "result": 6.38, "unit": "nM"}, {"measurement": "IC50", "setting": "[55]", "result": 115, "unit": "nM"}, {"measurement": "IC50", "setting": "[56]", "result": 28.2, "unit": "nM"}, {"measurement": "IC50", "setting": "[57]", "result": 38.4, "unit": "nM"}, {"measurement": "IC50", "setting": "[58]", "result": "> 256", "unit": "nM"}, {"measurement": "IC50", "setting": "[59]", "result": "> 256", "unit": "nM"}, {"measurement": "IC50", "setting": "[60]", "result": 197, "unit": "nM"}, {"measurement": "IC50", "setting": "[61]", "result": "> 256", "unit": "nM"}, {"measurement": "IC50", "setting": "[62]", "result": 6.3, "unit": "nM"}, {"measurement": "IC50", "setting": "[63]", "result": 95.2, "unit": "nM"}]}
